The source of these data is PubChem BioAssay (NCI).

Molecules are shown by their SMILES.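 96-well plates; 48 h exposure; 5 concentrations. Endpoints by linear interpolation between flanking doses. Not reached: highest tested concentration assigned. GI50: concentration for 50% inhibition of growth. TGI: total growth inhibition.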

Test systems include HT29 colon; HCT-15 colon; SF-295 CNS; NCI-H226 lung; NCI-H23 lung; CCRF-CEM leukemia; MALME-3M melanoma; HS 578T breast; NCI/ADR-RES ovarian; PC-3 prostate.
What all share (test): NCI tumour cell line growth inhibition, 48 h

Take `Cc1cc(C)nc(NS(=O)(=O)c2ccc(Nc3c4ccccc4nc4c(C(=O)NCCN(C)C)cccc34)cc2)n1`: the TGI in the test with HT29 colon was 14.3 µM; in the test with HCT-15 colon it was 19.3 µM; in the test on SF-295 CNS, 14.9 µM; with NCI-H226 lung, 6.21 µM; in the test with NCI-H23 lung, 21.5 µM; with CCRF-CEM leukemia, 22.6 µM.
As to `O=C1OC(=O)C([Se]c2ccccc2)=C1[Se]c1ccccc1`, the TGI in the test with MALME-3M melanoma, in the test with HT29 colon, with HCT-15 colon, with SF-295 CNS, in the test with NCI-H226 lung and with NCI-H23 lung was greater than 100 µM each time. The molecule also gave a TGI in the test on CCRF-CEM leukemia greater than 100 µM.
For the molecule `O=C1C(=O)C2(CC1S(=O)(=O)c1ccccc1)c1ccccc1-c1ccccc12` (stereo unspecified), the TGI in the test with MALME-3M melanoma was greater than 10 µM; in the test on HT29 colon it was 59.7 µM; with HCT-15 colon, 34.6 µM; with SF-295 CNS, 37.7 µM; in the test with NCI-H226 lung it was 82.6 µM; in the test on NCI-H23 lung it was 30.2 µM. Moreover, the TGI in the test with CCRF-CEM leukemia came out at 58.2 µM.
Take `O=CN1N=C(c2cccc(Nc3ccnc4cc(Cl)ccc34)c2)CC1c1ccc(Cl)cc1` (stereo unspecified): the GI50 with MALME-3M melanoma was 1.63 µM; with HS 578T breast, 1.97 µM; in the test on HT29 colon it was 0.477 µM; in the test on HCT-15 colon, 0.903 µM; in the test with NCI/ADR-RES ovarian it was 0.759 µM; with SF-295 CNS, 1.06 µM. Further, the GI50 was greater than 100 µM in the test with NCI-H226 lung, 2.48 µM in the test on NCI-H23 lung and 2.34 µM in the test on CCRF-CEM leukemia. Besides, the TGI in the test on MALME-3M melanoma is greater than 100 µM; in the test on HS 578T breast it was greater than 100 µM; in the test on HT29 colon, 3.65 µM; in the test with HCT-15 colon, greater than 100 µM; with NCI/ADR-RES ovarian, 3.94 µM; in the test on SF-295 CNS, 8.12 µM. Besides, the TGI in the test on NCI-H226 lung, in the test on NCI-H23 lung and in the test with CCRF-CEM leukemia was greater than 100 µM in each case.
In the case of `Cc1ccc(OC(=O)N2C/C(=C\c3ccccc3)C(=O)/C(=C/c3ccccc3)C2)cc1`, the TGI is greater than 100 µM in the test with MALME-3M melanoma; 76.5 µM in the test with HS 578T breast; 35.6 µM in the test on HT29 colon; greater than 100 µM with HCT-15 colon; 47.6 µM in the test on SF-295 CNS; greater than 100 µM in the test on NCI-H226 lung. In addition, the TGI was 87.9 µM in the test with NCI-H23 lung, greater than 100 µM in the test on PC-3 prostate and 16.3 µM in the test with CCRF-CEM leukemia.
As to `O=C(/C=C/c1ccccc1O)c1ccccc1Cl`, the TGI in the test with MALME-3M melanoma, in the test with HT29 colon, in the test with HCT-15 colon, with SF-295 CNS, in the test with NCI-H226 lung and with NCI-H23 lung was greater than 100 µM throughout. The TGI with CCRF-CEM leukemia was found to be 88.5 µM.
For `COc1ccc(Br)c(C(=O)N2CCc3ccccc32)c1N`, the TGI with MALME-3M melanoma, in the test with HT29 colon, with HCT-15 colon, with SF-295 CNS, in the test on NCI-H226 lung and with NCI-H23 lung was greater than 100 µM throughout. The molecule further displayed a TGI in the test on CCRF-CEM leukemia greater than 100 µM.
Regarding `C=C1C[C@@H]2O[C@H]3[C@H]4[C@@H](CC[C@@](C)(OC(=O)CCC)[C@H]42)[C@@H](C)C(=O)O[C@@]3(C)CC[C@H]1OO`, the GI50 in the test with MALME-3M melanoma is 18 µM; with HS 578T breast it was greater than 100 µM; in the test on HT29 colon, 16.9 µM; with HCT-15 colon, 16.2 µM; in the test with NCI/ADR-RES ovarian, 16.9 µM; in the test on SF-295 CNS it was 17.8 µM. In addition, the GI50 in the test on NCI-H226 lung was 17 µM; with NCI-H23 lung, 16.9 µM; with CCRF-CEM leukemia, 4.81 µM. In addition, the TGI in the test on MALME-3M melanoma was 37.1 µM; in the test on HS 578T breast, greater than 100 µM; with HT29 colon, 33.6 µM; in the test with HCT-15 colon, 29.7 µM; with NCI/ADR-RES ovarian it was 31.5 µM; in the test with SF-295 CNS, 36.1 µM. In addition, the results for the TGI in the test on NCI-H226 lung, with NCI-H23 lung and in the test on CCRF-CEM leukemia were 32.2 µM, 30.6 µM and 14.8 µM, respectively.
For `C1=CC2CCC1CN2CCC1CNc2ccccc21` (stereo unspecified), the TGI in the test with MALME-3M melanoma, in the test with HT29 colon, with SF-295 CNS, in the test with NCI-H226 lung, with NCI-H23 lung and in the test on CCRF-CEM leukemia was greater than 100 µM throughout.
Regarding `COc1cc(OC)c2c(=O)c3cccc([N+](=O)[O-])c3n(C)c2c1`, the TGI in the test with MALME-3M melanoma, with HT29 colon, in the test with HCT-15 colon, in the test with SF-295 CNS, in the test on NCI-H23 lung and with CCRF-CEM leukemia was greater than 100 µM throughout.
Consider `COc1cccc(/C=N\NC(=O)C(C)SC(C)C(=O)N/N=C/c2cccc(OC)c2)c1` (stereo unspecified), for which the TGI is greater than 100 µM in the test with MALME-3M melanoma; greater than 100 µM in the test with HT29 colon; greater than 100 µM in the test on HCT-15 colon; greater than 88.6 µM in the test with SF-295 CNS; 47.5 µM in the test with NCI-H226 lung; 73.2 µM with NCI-H23 lung. In addition, the TGI in the test with CCRF-CEM leukemia is greater than 93.5 µM.
On to `CCN(c1ccccc1)[C@H]1C(=O)N(c2ccc([N+](=O)[O-])cc2)[C@H]1c1ccc(OC)cc1`, for which the TGI in the test with MALME-3M melanoma, in the test with HT29 colon, in the test on SF-295 CNS, in the test with NCI-H226 lung, in the test on NCI-H23 lung and in the test on CCRF-CEM leukemia was greater than 100 µM throughout.
For `Cn1cnnc1[S-].[Au+].c1ccc([PH+](c2ccccc2)c2ccccc2)cc1`, the GI50 in the test with MALME-3M melanoma was 1.49 µM; in the test with SF-295 CNS, 1.85 µM; in the test with NCI-H226 lung it was 2.75 µM; in the test on PC-3 prostate, 1.52 µM. The TGI in the test on MALME-3M melanoma is 2.91 µM; in the test on SF-295 CNS, 3.82 µM; in the test with NCI-H226 lung, 9.08 µM; with PC-3 prostate it was 3.02 µM.
For `COc1ccc(C)cc1NC(=S)C#N`, the TGI in the test on HT29 colon, with HCT-15 colon, in the test with NCI/ADR-RES ovarian, in the test on SF-295 CNS, in the test on NCI-H226 lung and in the test on NCI-H23 lung was greater than 100 µM each time. For the same molecule, the TGI in the test on PC-3 prostate and in the test with CCRF-CEM leukemia was greater than 100 µM each time.
`Cc1ccc2ccc(-c3ccccc3)c3c2c1C(=O)c1ccccc1C3=O`: the TGI in the test on MALME-3M melanoma, in the test on HT29 colon, in the test with SF-295 CNS, in the test on NCI-H226 lung, in the test on NCI-H23 lung and in the test with CCRF-CEM leukemia was greater than 100 µM in each case.
